ChEMBL document CHEMBL3997789, “N-(2-(arylmethylimino)ethyl)-7-chloroquinolin-4-amine derivatives, synthesized by thermal and ultrasonic means, are endowed with anti-Zika virus activity” (Eur J Med Chem, 2017)

Columns and labels:
Zika virus [1] = experiment: Antiviral activity against Zika virus infected in African green monkey Vero cells assessed as inhibition of viral RNA replication at 10 uM after 24 hrs by RT-PCR method relative to control; type: functional
[2] = Selectivity index, ratio of CC50 for African green monkey Vero cells to EC50 for Zika virus; type: toxicity; conditions: read-out: Ratio CC50/EC50
Zika virus [3] = experiment: Antiviral activity against Zika virus infected in African green monkey Vero cells assessed as inhibition of viral RNA replication after 24 hrs by RT-PCR method; type: functional
[4] = Cytotoxicity against African green monkey Vero cells after 72 hrs by XTT assay; type: cell-based; conditions: chlorocebus sabaeus
Zika virus [5] = experiment: Potency index, ratio of chloroquine EC50 to test compound EC50 for Zika virus; type: functional
Vero = experiment: Cytotoxicity against African green monkey Vero cells assessed as reduction in cell viability at 10 uM after 72 hrs by XTT assay relative to control; type: cell-based; conditions: chlorocebus sabaeus

## Oc1ccccc1C=NCCNc1ccnc2cc(Cl)ccc12
Zika virus [1]
  inhibition at 10 µM: 57%

## O=[N+]([O-])c1ccc(C=NCCNc2ccnc3cc(Cl)ccc23)s1
[2]
  selectivity ratio: 318
Zika virus [3]
  EC50: 1.5 µM
[4]
  CC50 at 72 h: 478 µM
Zika virus [5]
  Ratio EC50: 10
Zika virus [1]
  inhibition at 10 µM: 78%

## Fc1ccc(C=NCCNc2ccnc3cc(Cl)ccc23)cc1
[2]
  selectivity ratio: 356
Zika virus [3]
  EC50: 1.5 µM
[4]
  CC50 at 72 h: 534 µM
Zika virus [5]
  Ratio EC50: 10
Zika virus [1]
  inhibition at 10 µM: 75%

## COc1cccc(C=NCCNc2ccnc3cc(Cl)ccc23)c1O
[2]
  selectivity ratio: 304
Zika virus [3]
  EC50: 1.6 µM
[4]
  CC50 at 72 h: 487 µM
Zika virus [5]
  Ratio EC50: 10
Zika virus [1]
  inhibition at 10 µM: 74%

## Clc1ccc2c(NCCN=Cc3c(Cl)cccc3Cl)ccnc2c1
Vero
  Activity: > 80%

## Clc1ccc2c(NCCN=Cc3ccccc3)ccnc2c1
[2]
  selectivity ratio: 407
Zika virus [3]
  EC50: 1.2 µM
[4]
  CC50 at 72 h: 489 µM
Zika virus [5]
  Ratio EC50: 10
Zika virus [1]
  inhibition at 10 µM: 76%

## COc1ccc(OC)c(C=NCCNc2ccnc3cc(Cl)ccc23)c1
Zika virus [1]
  inhibition at 10 µM: 51%

## COc1cc(C=NCCNc2ccnc3cc(Cl)ccc23)cc(OC)c1OC
Zika virus [1]
  inhibition at 10 µM: 41%

## O=[N+]([O-])c1ccc(C=NCCNc2ccnc3cc(Cl)ccc23)o1
[2]
  selectivity ratio: 515
Zika virus [3]
  EC50: 0.8 µM
[4]
  CC50 at 72 h: 412 µM
Zika virus [5]
  Ratio EC50: 10
Zika virus [1]
  inhibition at 10 µM: 72%

## COc1ccccc1C=NCCNc1ccnc2cc(Cl)ccc12
Zika virus [1]
  inhibition at 10 µM: 70%

## O=[N+]([O-])c1cccc(C=NCCNc2ccnc3cc(Cl)ccc23)c1
Zika virus [1]
  inhibition at 10 µM: 59%

## Clc1ccc2c(NCCN=Cc3cccnc3)ccnc2c1
[2]
  selectivity ratio: 170
Zika virus [3]
  EC50: 3.4 µM
[4]
  CC50 at 72 h: 578 µM
Zika virus [5]
  Ratio EC50: 5
Zika virus [1]
  inhibition at 10 µM: 80%

## Clc1ccc2c(NCCN=Cc3ccc(Br)cc3)ccnc2c1
Zika virus [1]
  inhibition at 10 µM: 52%

## O=[N+]([O-])c1ccc(C=NCCNc2ccnc3cc(Cl)ccc23)cc1
[2]
  selectivity ratio: 341
Zika virus [3]
  EC50: 1.5 µM
[4]
  CC50 at 72 h: 512 µM
Zika virus [5]
  Ratio EC50: 10
Zika virus [1]
  inhibition at 10 µM: 82%

## Clc1ccc(C=NCCNc2ccnc3cc(Cl)ccc23)c(Cl)c1
Vero
  Activity: > 80%

## COc1cccc(OC)c1C=NCCNc1ccnc2cc(Cl)ccc12
[2]
  selectivity ratio: 305
Zika virus [3]
  EC50: 1.5 µM
[4]
  CC50 at 72 h: 458 µM
Zika virus [5]
  Ratio EC50: 10
Zika virus [1]
  inhibition at 10 µM: 75%

## Clc1ccc2c(NCCN=Cc3ccncc3)ccnc2c1
[2]
  selectivity ratio: 380
Zika virus [3]
  EC50: 1.5 µM
[4]
  CC50 at 72 h: 571 µM
Zika virus [5]
  Ratio EC50: 10
Zika virus [1]
  inhibition at 10 µM: 74%

## Cc1ccc(C=NCCNc2ccnc3cc(Cl)ccc23)cc1
Zika virus [1]
  inhibition at 10 µM: 66%

## Clc1ccc2c(NCCN=Cc3ccccn3)ccnc2c1
Zika virus [1]
  inhibition at 10 µM: 70%

## Oc1cccc(C=NCCNc2ccnc3cc(Cl)ccc23)c1O
Vero
  Activity: > 80%

## NCCNc1ccnc2cc(Cl)ccc12
Zika virus [1]
  inhibition at 10 µM: 43%

## CCN(CC)CCCC(C)Nc1ccnc2cc(Cl)ccc12 (stereo not drawn) [CHLOROQUINE]
Zika virus [1]
  inhibition at 10 µM: 47%
